Patent EP1145714A1, “DRUGS” (Takeda Chemical Industries, Ltd., priority 1998, dated 2000)

System: acute vomiting induced by a central emetic agent loperamide in dogs
Experiment: Acute vomiting induced by loperamide in dogs
Type: in vivo, beagle dogs
Conditions: loperamide 1 mg/kg subcutaneous
Protocol: 3 male or female beagle dogs (7.7 to 12.7 kg) per one group were used. Loperamide was subcutaneously given at 1 mg/ml/kg. 2.5 hours prior to loperamide administration, a small amount of a feed was given to the animals. 30 minutes thereafter, predetermined doses of the compound No. 3 were orally given. Similarly, 0.5 % methyl cellulose solution was orally given to a control animal group under no fasting. Predetermined doses of naloxone and ondansetron were given intravenously and orally, respectively to the animals under fasting, 30 minutes prior to loperamide administration. The frequency of vomiting was counted, up to 3 hours after loperamide administration. The compound No. 3 was dissolved in 0.5 % methyl cellulose solution, for oral dosing at a ratio of 0.25 to 1 ml per 1 kg body weight. Additionally, naloxone was intravenously given in a solution at a concentration of 0.05 % w/v. An injection of ondansetron at a concentration of 0.2 % w/v was orally given. Still additionally, 0.5 % methyl cellulose solution was orally given at a ratio of 1 ml per 1 kg body weight. The data relating to the frequency of vomiting, the latency and the time period from the occurrence of vomiting to the termination thereof were statistically analyzed by the Dunnett test, with reference to the difference from the control group.
The vomiting suppression ratio was calculated by the following formula. [Frequency of retching or vomiting in control] - [Frequency of retching or vomiting in animals dosed with compound No. 3] / [frequency of retching or vomiting in control] x 100 (%) [formula]

SMILES: C=CCN1CC[C@]23c4c5ccc(O)c4O[C@H]2C(=O)CC[C@@]3(O)[C@H]1C5 [Naloxone, naloxone, reference compound]
- Vomiting suppression ratio (0.5 mg/kg i.v.): 93 % b
- B: Frequency of vomiting (mean ± SD) (0.5 mg/kg i.v., 3 hours): 0.7 ± 0.7 b
- C: Time period until first vomiting (minute; mean ± SD) (0.5 mg/kg i.v., 3 hours): 2.61± 0.39b minute
- D: Duration of vomiting (minute; mean ± SD) (0.5 mg/kg i.v., 3 hours): 0.01 ± 0.01 b minute
- Number of dogs with vomiting/number of tested dogs (0.5 mg/kg i.v., 3 hours): 1/3
- Effect on vomiting (in words) (0.5 mg/kg intravenous): almost completely suppressed
